Assay results: patent publication US9918958B2, “Treatment for hypoxia” (priority 2011, dated 2018)

Tests used:
[1] = test system: sickle cell disease mouse model; conditions: cited from earlier work
mice = conditions: simulated altitude of 9,500 meters; cited from earlier work
[2] = human, single doses of 300 mg, 1000 mg, 2000 mg and 4000 mg (n=6 per dose)
Procedure: The study was a double-blind, placebo (n=8) controlled single ascending dose (SAD) trial examining 5-HMF doses of 300 mg, 1000 mg, 2000 mg and 4000 mg (n=6 per dose).

[3] = hypoxic challenge test (12% oxygen, SpO2 by pulse oximeter); type: in vivo, human
Procedure: The hypoxic challenge test was conducted it the following manner: using face masks and air tanks containing 12% oxygen (compared to 21% oxygen in normal air at sea level), subjects inhaled the 12% hypoxic mixture for 5 minutes at a time just prior to starting the dose of study medication (5-HMF or placebo, double-blind) and then again at each of the time intervals 0.75, 2, 4 and 8 hours after the dose. A finger tip oxygen sensing probe connected to a pulse oximeter provided continuous measurement of SpO2 values (percentage of hemoglobin containing at least one oxygen molecule) and the SpO2 values were recorded every 20 seconds during the hypoxic challenge and during a 3-minute recovery period (during which normal air was inspired). The hypoxia challenge was aborted if SpO2 values fell to less than 85%. FIG. 1 illustrates the effect of 5-HMF during a hypoxic challenge. The data compares the fall in mean SpO2 values of placebo and the 2000 mg dose of 5-HMF prior to a hypoxic challenge given at the 2 hour time point post-dose. The mean change in SpO2 levels from start is shown for each one-minute interval of the 5-minute hypoxic challenge. […] It is noteworthy that the difference between placebo and drug becomes greater as the level of hypoxia in the placebo subjects increases. […] Since the level of hypoxic challenge in this initial human study was moderate (no clinical symptoms of hypoxia were present), the impact of 5-HMF should be even greater when the hypoxic challenge is more extreme.
An illustration of the dose-dependent ability of 5-HMF to impact blood oxygenation during a hypoxic challenge is shown in FIG. 2. Because there are appreciable inter-individual differences in the magnitude of the decline of SpO2 in response to a hypoxic challenge, each subject (both placebo and 5-HMF) was tested for the decline in SpO2 at the 5 minute time point for both (i) the challenge given prior to the dose of placebo or 5-HMF and (ii) the challenge given 2 hours after the dose of placebo or 5-HMF. The dotted line in FIG. 2 represents the “baseline” amount of decline occurring during the challenge given prior to dosing placebo or 5-HMF. The results of the decline in SpO2 for each subject at the end the challenge given 2 hours post-dose results were compared to the subject's baseline amount. Thus each subject acted as his/her own control. The blue dots represent individual subject scores and the horizontal black line is the mean SpO2 change relative to the pre-dose hypoxic challenge.

[4] = animals

Structure (SMILES): O=Cc1ccc(CO)o1 [5-HMF, 5-hydroxymethyl-2-furfural]
- P50 of SCD Hb [1]: lower P50 (left shift)
- protection against lethal effects of hypoxia [1]: provides in vivo protection against the lethal effects of hypoxia
- survival under hypobaric hypoxia (mice): increase survival of mice
- safety and tolerability [2]: safe and well tolerated
- effect on blood oxygen saturation during hypoxia challenge compared to placebo ([3]; 300 mg dose, 2 hours post-dose): small
- mean change in ending SpO2 levels relative to the pre-dose hypoxic challenge ([3]; 1000 mg dose, 2 hours post-dose, 5 minute time point of challenge): approximately 2.5 unit
- fall in mean SpO2 after one minute of inhalation of hypoxic air ([3]; 2000 mg dose, challenge at 2 hour post-dose, 12% oxygen): 5 units
- effect on SpO2 during hypoxic challenge relative to placebo ([3]; 2000 mg dose, challenge at 2 hour post-dose, from one minute on for the remainder of the 5-minute challenge): less severe decrease in SpO2 during the hypoxic challenge
- effect on blood oxygen saturation during hypoxia challenge compared to placebo ([3]; all dose levels (300-4000 mg), 2 hours post-dose): increased the blood oxygen saturation of the test subjects compared to placebo at all dose levels
- difference from placebo of the most active dose levels ([3]; top three doses (1000, 2000, 4000 mg), p=0.0498): statistically significant
- safety window suggested by repeat dose animal toxicology and safety data [4]: wide safety window in humans is likely
